This is an account of results in ChEMBL document CHEMBL5360519, “Chemical similarities and differences among inhibitors of nitric oxide synthase, arginase and dimethylarginine dimethylaminohydrolase-1: Implications for the design of novel enzyme inhibitors modulating the nitric oxide pathway” (Bioorg Med Chem, 2022).

SMILES strings stand for the structures. pIC50, pKi: −log10 of the molar value.

The target of assay [1] is T1, N(G),N(G)-dimethylarginine dimethylaminohydrolase 1 (Homo sapiens, UniProt O94760). The assay is described as follows: Inhibition of N-terminal His6-tagged human DDAH1 expressed in Escherichia coli measured after 18 hrs.
T1 sequence (O94760 whole entry): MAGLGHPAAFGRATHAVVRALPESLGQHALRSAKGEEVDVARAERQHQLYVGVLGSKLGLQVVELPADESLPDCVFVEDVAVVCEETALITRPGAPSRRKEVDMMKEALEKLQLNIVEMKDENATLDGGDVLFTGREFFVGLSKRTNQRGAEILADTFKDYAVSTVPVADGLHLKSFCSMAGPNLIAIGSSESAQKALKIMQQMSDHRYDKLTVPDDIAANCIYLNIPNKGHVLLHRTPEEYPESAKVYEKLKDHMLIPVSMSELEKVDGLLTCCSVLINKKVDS
Assay [2] deals with T1, N(G),N(G)-dimethylarginine dimethylaminohydrolase 1. The assay is described as follows: Inhibition of His-tagged human DDAH1 using SMTC as substrate assessed as inhibition constant.
Assay [3] shares this target. The assay is described as follows: Inhibition of human DDAH1 assessed as inhibition constant.
Assay [4] is filed under the species Homo sapiens. Briefly: Selectivity index, ratio of Ki for Inhibition of N-terminal His6-tagged human DDAH1 transfected in HEK293T cells to Ki for human eNOS. The assay is classed as cell-based.
Assay [5] can be described thus: Upregulation of DDAH1 (unknown origin) transfected in HEK293T cells by Western blot analysis relative to control. The assay is classed as functional, Homo sapiens, HEK-293T.
Assay [6] deals with T1, N(G),N(G)-dimethylarginine dimethylaminohydrolase 1. The assay is described as follows: Inhibition of human DDAH1 expressed using SMTC as substrate assessed as inhibition constant measured after 5 mins.
Assay [7] is filed under the species Homo sapiens. Briefly: Selectivity index, ratio of Ki for Inhibition of N-terminal His6-tagged human DDAH1 transfected in HEK293T cells to Ki for human arginase. Format: cell-based.
Another assay concerns the target Nitric oxide synthase 1 (Homo sapiens, UniProt P29475). Briefly: Inhibition of human nNOS assessed as inhibition constant measured after 5 mins.
Assay [8] addresses T1, N(G),N(G)-dimethylarginine dimethylaminohydrolase 1. The assay is described as follows: Inhibition of human DDAH1 using SMTC as substrate by fluorimetric assay.
Assay [9] shares this target. Briefly: Inhibition of human DDAH1 expressed using SMTC as substrate measured after 5 mins.
Assay [10] has the same target. The assay is described as follows: Inhibition of human DDAH1.

Nitric oxide synthase 1, sequence (P29475 whole entry): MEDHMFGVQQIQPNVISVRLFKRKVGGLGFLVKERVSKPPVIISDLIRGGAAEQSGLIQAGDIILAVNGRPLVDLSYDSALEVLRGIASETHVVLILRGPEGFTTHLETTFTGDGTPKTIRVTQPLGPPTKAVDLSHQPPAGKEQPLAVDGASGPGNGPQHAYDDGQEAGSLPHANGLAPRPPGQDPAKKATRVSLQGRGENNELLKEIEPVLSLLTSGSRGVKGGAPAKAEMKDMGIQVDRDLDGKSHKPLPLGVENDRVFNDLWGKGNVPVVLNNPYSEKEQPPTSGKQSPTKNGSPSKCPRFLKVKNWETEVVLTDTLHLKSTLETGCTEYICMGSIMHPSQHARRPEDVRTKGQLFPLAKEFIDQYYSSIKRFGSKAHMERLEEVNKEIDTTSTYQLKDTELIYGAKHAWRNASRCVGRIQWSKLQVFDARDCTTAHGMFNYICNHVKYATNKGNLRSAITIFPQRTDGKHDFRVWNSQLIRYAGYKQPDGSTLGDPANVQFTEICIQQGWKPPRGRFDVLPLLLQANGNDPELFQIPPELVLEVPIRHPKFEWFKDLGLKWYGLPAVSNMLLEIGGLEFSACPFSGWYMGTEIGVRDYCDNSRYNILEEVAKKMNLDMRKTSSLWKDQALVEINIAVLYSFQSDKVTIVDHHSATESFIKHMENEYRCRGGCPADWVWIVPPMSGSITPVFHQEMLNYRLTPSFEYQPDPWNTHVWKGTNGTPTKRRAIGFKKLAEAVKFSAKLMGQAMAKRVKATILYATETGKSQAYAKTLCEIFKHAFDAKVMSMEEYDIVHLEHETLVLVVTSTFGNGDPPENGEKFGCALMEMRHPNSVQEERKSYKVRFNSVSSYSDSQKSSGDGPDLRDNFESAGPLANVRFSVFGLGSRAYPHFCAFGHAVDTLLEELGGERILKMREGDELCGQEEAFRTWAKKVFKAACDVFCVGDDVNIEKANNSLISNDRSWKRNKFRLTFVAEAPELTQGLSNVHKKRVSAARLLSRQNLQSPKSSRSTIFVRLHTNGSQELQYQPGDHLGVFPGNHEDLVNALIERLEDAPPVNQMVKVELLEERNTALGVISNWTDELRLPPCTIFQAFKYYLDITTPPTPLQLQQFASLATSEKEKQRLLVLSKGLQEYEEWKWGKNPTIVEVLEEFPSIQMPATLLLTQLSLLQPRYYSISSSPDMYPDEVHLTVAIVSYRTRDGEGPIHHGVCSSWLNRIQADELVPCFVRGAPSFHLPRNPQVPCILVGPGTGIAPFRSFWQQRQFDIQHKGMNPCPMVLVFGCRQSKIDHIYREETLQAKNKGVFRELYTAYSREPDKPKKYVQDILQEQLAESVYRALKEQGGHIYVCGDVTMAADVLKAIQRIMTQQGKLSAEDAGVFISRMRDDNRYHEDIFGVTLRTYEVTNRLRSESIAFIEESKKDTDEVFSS

`CCCCCC(O)/C=C/C=O` (configuration not stated) [4-HYDROXYNON-2-ENAL] gave a negative logarithm of the IC50 (pIC50) in assay [1] of 4.30. On to `CC(C)(C)c1cc(C(F)(F)F)c2c(N)c(C(=O)Nc3nccs3)sc2n1`, for which the pKi in assay [2] is 5.05. With `Cc1cc(Br)ccn1`, the negative logarithm of the Ki (pKi) in assay [3] was 2.59. Turning to `N=C(CCl)NCCC[C@H](N)C(=O)O`, the Ratio Ki in the assay filed under Homo sapiens [4] and in the assay listed under Homo sapiens [7] was > 500 each time. Moreover, the Activity in assay [5] is recorded as 80%. Also, the negative logarithm of the Ki (pKi) in assay [6] is 3.96. Regarding `N=C1Sc2ccccc2C2=NCCCN12`, the pKi in assay [6] is 3.96; on Nitric oxide synthase 1 it was < 2.72. The molecule further showed a pIC50 in [8] of 5.05. For the molecule `CCCCCC(=N)NCCC[C@H](N)C(=O)O`, the pIC50 in assay [9] was < 2.72. For the molecule `C#CCCNC(=N)CCl`, in [10], the pIC50 was 3.46.
